In this data set the target is T1, CDK6 (Homo sapiens, UniProt Q00534).
T1 construct: Western blot analysis of CDK6 degradation in U251 cells treated with distance-based DNA-PROTACs; endogenous in cells; host or cells: U-251 MG (U251) glioblastoma cells
As to the kind of experiment: Western blot of CDK6 degradation in U251 cells transfected with DNA-PROTACs. The data set is classed as cell-based. As to conditions: for CDK6 protein degradation (Western blot): 14-hour treatment. As for the experimental part:
U-251 MG Glioblastoma Cell Line was grown in Dulbecco's Modified Eagles Medium (DMEM) containing 10% heat inactivated fetal bovine serum (FBS), streptomycin (5 μg/mL) and 5 U/mL penicillin 95 U/mL). All cell lines were maintained, and cell culture experiments were carried out in humidified incubators at 37° C. and 5% CO2 supplementation.
One day prior to DNA-PROTACs transfection, cells were propagated into 6 cm cell culture dishes containing appropriate complete growth medium. Prior to transfection, complete medium was replaced with transfection medium (5% FBS, no Penstrep). DNA-PROTACs transfection was performed using lipofectamine 3000 reagent according to the protocols provided by the manufacture. All transfections were carried out in 6-cm dishes with 3 mL of media and concentrations of DNA-PROTACs were calculated according to this volume (3 mL). Briefly, for 50 nM concentration, 5 μL from a 30 µM DNA-PROTACs stock and 12 μL p3000 reagent was added to a tube containing 125 μL of OPTIM-MEM and 8 μL of Lipofectamine 3000 reagent was added to a separate tube containing 125 μL of OPTIM-MEM. Two tubes were incubated for 5 minutes at room temperature and DNA-PROTACs containing OPTI-MEM was then slowly added to the second tube with lipo3000. The solution in the tube was mixed well by pipetting up and down several times. After incubating for 15-20 minutes at room temperature, 250 μL of DNA-PROTACs-lipofectamine complex was added drop wise onto cells containing the transfection medium. Transfection medium was mixed well before transferring the plate into the incubator. After appropriate time, cells were either harvested or replaced with fresh medium and incubated for desired time point prior to harvesting. For proteasome inhibition assay, 5 μM of MG-132 was incubated with cells for 2 h prior to transfection of DNA-PROTACs. Then, cells were incubated for another 12 h before lysing cells. Cell lysates were prepared by incubating cells in RIPA lysis buffer (25 mM Tris pH 7.6, 150 mM NaCl, 1% NP40, 1% deoxycholate, 0.1% SDS, 1× protease inhibitor cocktail from Roche and 1 mM of PMSF) on ice for 30 minutes and cell lysate was clarified by centrifugation at high speed (15 000 rpm) for 15 minutes. Clear supernatant was collected for further experiments.
Protein concentration in all the cell lysates were measured by BCA protein assay kit and equal amounts from each lysate were mixed with 4×loading dye and boiled for 5 minutes followed by 2 minutes centrifugation prior to loading into SDS-PAGE gel. Next proteins on the SDS-PAGE gel were transferred to a Nitrocellulose membrane by western blotting and the membrane was blocked with 5% milk in TBST (0.05% Tween 20) for 1 h. Primary antibodies (all Abcam antibodies were diluted 1:5000) were prepared in TBST with 2.5% milk and membranes were incubated overnight at 4° C. On the following day, membrane was washes for 15 minutes (Incubate for three times, 5 minutes each) and appropriate secondary antibodies (1:5000) were prepared in TBST and incubated with the membrane for 1 h at room temperature (RT). Membrane was washed for 15 minutes with TBST (incubate for three times, […]) prior to imaging.
The degradation efficiency of various DNA-PROTACs was evaluated through their transfection into U251 cells, conducted simultaneously to ensure uniform experimental conditions. A double-stranded DNA sequence without any ligand was utilized as a negative control, providing a baseline for comparison. Following a 14-hour treatment period, a duration selected based on preliminary time-course studies, the cells were harvested using trypsin digestion. The lysates obtained were then subjected to SDS-PAGE, followed by Western blot analysis to assess protein degradation. […] This finding highlights the efficacy of DNA-PROTAC V02 in targeting and reducing CDK6 protein levels. In comparison, DNA-PROTAC Versions 03 and 04 also facilitated protein degradation, albeit with varying degrees of efficiency. […]
On the technique in general: In western blotting, separated proteins are transferred to a membrane and probed.

T1 sequence (Q00534 whole entry): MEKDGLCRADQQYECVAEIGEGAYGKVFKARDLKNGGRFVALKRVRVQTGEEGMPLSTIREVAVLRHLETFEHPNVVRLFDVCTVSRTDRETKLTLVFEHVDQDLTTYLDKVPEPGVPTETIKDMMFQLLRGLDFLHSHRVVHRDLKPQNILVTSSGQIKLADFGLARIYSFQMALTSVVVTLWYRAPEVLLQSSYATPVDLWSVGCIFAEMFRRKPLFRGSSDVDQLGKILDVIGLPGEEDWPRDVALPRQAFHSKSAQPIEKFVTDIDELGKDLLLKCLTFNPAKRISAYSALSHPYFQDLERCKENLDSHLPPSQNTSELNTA

As for “A-minor-02: angular-series DNA duplex of E3-i strand SEQ ID NO 3 and POI-i strand SEQ ID NO 22 (chain 1 ACTCCATCTANTTCTACGCCA; chain 2 TGGCGTAGAATANGATGGAGT; E3 and POI ligands conjugated; modified_base 1 OTHER; Nucleotide with phosphorothioate linkage; modified_base 2 OTHER; modified_base 3 OTHER; misc_difference 11 E3 ligase attached to 3-Dimethoxytrityloxy-2-(3-(fluorenylmethoxycarbonylamino)propanamido)propyl-1-O-(2-cyanoethyl)-(N,N-diisopropyl)-phosphoramidite modified adenosine, cytidine, thymi; m)”, the “CDK6 protein degradation (Western blot)” value (100 nM) is reported as “substantial degradation”.

Consider “Version 04: DNA duplex of E3-i strand SEQ ID NO 3 and POI-i strand SEQ ID NO 6 (chain 1 ACTCCATCTANTTCTACGCCA; chain 2 TGGCNGTAGAATAGATGGAGT; E3 and POI ligands conjugated; modified_base 1 OTHER; Nucleotide with phosphorothioate linkage; modified_base 2 OTHER; modified_base 3 OTHER; misc_difference 11 E3 ligase attached to 3-Dimethoxytrityloxy-2-(3-(fluorenylmethoxycarbonylamino)propanamido)propyl-1-O-(2-cyanoethyl)-(N,N-diisopropyl)-phosphoramidite modified adenosine, cytidine, thymi; m)”, for which the “CDK6 protein degradation (Western blot)” value (50 nM) is given as “more pronounced reduction in protein levels”. Regarding “Version 03: DNA duplex of E3-i strand SEQ ID NO 3 and POI-i strand SEQ ID NO 5 (chain 1 ACTCCATCTANTTCTACGCCA; chain 2 TGGCGTAGAATAGANTGGAGT; E3 and POI ligands conjugated; modified_base 1 OTHER; Nucleotide with phosphorothioate linkage; modified_base 2 OTHER; modified_base 3 OTHER; misc_difference 11 E3 ligase attached to 3-Dimethoxytrityloxy-2-(3-(fluorenylmethoxycarbonylamino)propanamido)propyl-1-O-(2-cyanoethyl)-(N,N-diisopropyl)-phosphoramidite modified adenosine, cytidine, thymi; m)”, under “100 nM”, the “CDK6 protein degradation (Western blot)” value is listed as “substantially reduce CDK6 protein levels”.

In the case of “A-minor-00: angular-series DNA duplex of E3-i strand SEQ ID NO 3 and POI-i strand SEQ ID NO 5 (chain 1 ACTCCATCTANTTCTACGCCA; chain 2 TGGCGTAGAATAGANTGGAGT; pomalidomide and POI ligand conjugated; modified_base 1 OTHER; Nucleotide with phosphorothioate linkage; modified_base 2 OTHER; modified_base 3 OTHER; misc_difference 11 E3 ligase attached to 3-Dimethoxytrityloxy-2-(3-(fluorenylmethoxycarbonylamino)propanamido)propyl-1-O-(2-cyanoethyl)-(N,N-diisopropyl)-phosphoramidite modified adenosine, cytidine, thymi; m)”, the “CDK6 protein degradation (Western blot)” value (concentration not given) is recorded as “marginal CDK6 degradation”. In the case of “Version 05: DNA duplex of E3-i strand SEQ ID NO 18 and POI-i strand SEQ ID NO 20; largest ligand distance of approximately 60.2 Å (chain 1 ANCTCCATCTATTCTACGCCA; chain 2 TNGGCGTAGAATAGATGGAGT; E3 and POI ligands conjugated; modified_base 1 OTHER; Nucleotide with phosphorothioate linkage; misc_difference 2 E3 ligase attached to 3-Dimethoxytrityloxy-2-(3-(fluorenylmethoxycarbonylamino)propanamido)propyl-1-O-(2-cyanoethyl)-(N,N-diisopropyl)-phosphoramidite modified adenosine, cytidine, thymidine, guanosine, unknown or other nucleotide with phosphorothioate linkage; modified_base 3 OTHER; Nucleotide with phosphorothioate; misc_difference 2 Protein of interest attached to 3-Dimethoxytrityloxy-2-(3-(fluorenylmethoxycarbonylamino)propanamido)propyl-1-O-()”, the “CDK6 protein degradation (Western blot)” value (50 nM and 100 nM, vs ligand-free dsDNA control) is recorded as “did not exhibit any discernible protein degradation”.

“A-minor-01: angular-series DNA duplex of E3-i strand SEQ ID NO 3 and POI-i strand SEQ ID NO 21 (chain 1 ACTCCATCTANTTCTACGCCA; chain 2 TGGCGTAGAATAGNATGGAGT; E3 and POI ligands conjugated; modified_base 1 OTHER; Nucleotide with phosphorothioate linkage; modified_base 2 OTHER; modified_base 3 OTHER; misc_difference 11 E3 ligase attached to 3-Dimethoxytrityloxy-2-(3-(fluorenylmethoxycarbonylamino)propanamido)propyl-1-O-(2-cyanoethyl)-(N,N-diisopropyl)-phosphoramidite modified adenosine, cytidine, thymi; m)”: the “CDK6 protein degradation (Western blot)” value (100 nM) is “substantial degradation”. `CC(=O)c1c(C)c2cnc(Nc3ccc(N4CCN(CCOCCOCCOCCNC(=O)COc5cccc6c5C(=O)N(C5CCC(=O)NC5=O)C6=O)CC4)cn3)nc2n(C2CCCC2)c1=O` (centres unmarked) [BSJ-03-123, reference compound]: where the note is “160 nM treatment”, the “CDK6 protein levels (Western blot)” value was “discernible reduction in protein levels”. With “A-minor-03: angular-series DNA duplex of E3-i strand SEQ ID NO 3 and POI-i strand SEQ ID NO 23 (chain 1 ACTCCATCTANTTCTACGCCA; chain 2 TGGCGTAGAATNAGATGGAGT; E3 and POI ligands conjugated; modified_base 1 OTHER; Nucleotide with phosphorothioate linkage; modified_base 2 OTHER; modified_base 3 OTHER; misc_difference 11 E3 ligase attached to 3-Dimethoxytrityloxy-2-(3-(fluorenylmethoxycarbonylamino)propanamido)propyl-1-O-(2-cyanoethyl)-(N,N-diisopropyl)-phosphoramidite modified adenosine, cytidine, thymi; m)”, the “concentration at which significant CDK6 degradation begins” value (14 hours, angular series) is recorded as 20 nM.

These data come from patent US20260216229A1, “PROGRAMMABLE DNA PROTEOLYSIS TARGET CHIMERAS AND METHODS OF THEIR USE” (ARIZONA BOARD OF REGENTS ON BEHALF OF ARIZONA STATE …, priority 2023, published 2026).
